# PubChem BioAssay AID1963963 (Molecular Pharmacology Branch, DTP, NCI, 2024)
# System: 958667-338-R-J2-PDC tumor spheroids viability
# Assay: Anticancer human tumor 958667-338-R-J2-PDC patient-derived colon adenocarcinoma cell line growth inhibition [PI3K]
# Settings: spheroids with HUVEC and MSC; for IC50: curve of first compound; for viability, T/C: stronger effect = lower value
# Summary of the method: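 Targeted small molecules plus PI3K inhibitors, half-log dose series from Cmax (default top 10 microM), were applied to heterotypic spheroids of cancer cells with HUVEC and MSCs. Viability indicated growth inhibition.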
# [1] = second compound 0.0316 µM, first compound 0.0316 µM
# [2] = second compound 0.0316 µM, first compound 0.1 µM
# [3] = second compound 0.1 µM, first compound 0.0316 µM
# [4] = second compound 0.1 µM, first compound 0.1 µM
# [5] = second compound 0.316 µM, first compound 0.0316 µM
# [6] = second compound 0.316 µM, first compound 0.1 µM
# [7] = second compound 1 µM, first compound 0.0316 µM
# [8] = second compound 1 µM, first compound 0.1 µM
# [9] = second compound 3.16 µM, first compound 0.0316 µM
# [10] = second compound 3.16 µM, first compound 0.1 µM
# [11] = second compound 10 µM, first compound 0.0316 µM
# [12] = second compound 10 µM, first compound 0.1 µM
# 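Further: spheroids exposed to compounds for seven days before readout.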
structure (smiles),measurement,setting,value
CC(=O)c1c(C)c2cnc(Nc3ccc(N4CCNCC4)cn3)nc2n(C2CCCC2)c1=O + Cc1nc(NC(=O)N2CCCC2C(N)=O)sc1-c1ccnc(C(C)(C)C(F)(F)F)c1,IC50,second compound 0.0316 µM,> 0.1 µM
same,IC50,second compound 0.1 µM,> 0.1 µM
same,IC50,second compound 0.316 µM,> 0.1 µM
same,IC50,second compound 1 µM,> 0.1 µM
same,IC50,second compound 3.16 µM,> 0.1 µM
same,IC50,second compound 10 µM,> 0.1 µM
same,"viability, T/C","second compound 0.0316 µM, first compound 0.000316 µM",104%
same,"viability, T/C","second compound 0.0316 µM, first compound 0.001 µM",77.1%
same,"viability, T/C","second compound 0.0316 µM, first compound 0.00316 µM",96%
same,"viability, T/C","second compound 0.0316 µM, first compound 0.01 µM",94.3%
same,"viability, T/C",[1],95.8%
same,"viability, T/C",[2],73.7%
same,"viability, T/C","second compound 0.1 µM, first compound 0.000316 µM",97.2%
same,"viability, T/C","second compound 0.1 µM, first compound 0.001 µM",96.8%
same,"viability, T/C","second compound 0.1 µM, first compound 0.00316 µM",106%
same,"viability, T/C","second compound 0.1 µM, first compound 0.01 µM",88.7%
same,"viability, T/C",[3],103%
same,"viability, T/C",[4],94.7%
same,"viability, T/C","second compound 0.316 µM, first compound 0.000316 µM",104%
same,"viability, T/C","second compound 0.316 µM, first compound 0.001 µM",83.1%
same,"viability, T/C","second compound 0.316 µM, first compound 0.00316 µM",84.4%
same,"viability, T/C","second compound 0.316 µM, first compound 0.01 µM",91.5%
same,"viability, T/C",[5],78.1%
same,"viability, T/C",[6],73.7%
same,"viability, T/C","second compound 1 µM, first compound 0.000316 µM",87.8%
same,"viability, T/C","second compound 1 µM, first compound 0.001 µM",78.5%
same,"viability, T/C","second compound 1 µM, first compound 0.00316 µM",73.4%
same,"viability, T/C","second compound 1 µM, first compound 0.01 µM",62.2%
same,"viability, T/C",[7],74.5%
same,"viability, T/C",[8],66.2%
same,"viability, T/C","second compound 3.16 µM, first compound 0.000316 µM",72%
same,"viability, T/C","second compound 3.16 µM, first compound 0.001 µM",74%
same,"viability, T/C","second compound 3.16 µM, first compound 0.00316 µM",59.3%
same,"viability, T/C","second compound 3.16 µM, first compound 0.01 µM",67.2%
same,"viability, T/C",[9],70.3%
same,"viability, T/C",[10],71.9%
same,"viability, T/C","second compound 10 µM, first compound 0.000316 µM",52.8%
same,"viability, T/C","second compound 10 µM, first compound 0.001 µM",55.5%
same,"viability, T/C","second compound 10 µM, first compound 0.00316 µM",52.2%
same,"viability, T/C","second compound 10 µM, first compound 0.01 µM",55.4%
same,"viability, T/C",[11],51.4%
same,"viability, T/C",[12],58.5%
CNC(=O)c1ccc(N2C(=S)N(c3ccc(C#N)c(C(F)(F)F)c3)C(=O)C2(C)C)cc1F + Cc1nc(NC(=O)N2CCCC2C(N)=O)sc1-c1ccnc(C(C)(C)C(F)(F)F)c1,IC50,second compound 0.0316 µM,> 10 µM
same,IC50,second compound 0.1 µM,> 10 µM
same,IC50,second compound 0.316 µM,> 10 µM
same,IC50,second compound 1 µM,> 10 µM
same,IC50,second compound 3.16 µM,> 10 µM
same,IC50,second compound 10 µM,> 10 µM
same,"viability, T/C",[1],109%
same,"viability, T/C",[2],94.6%
same,"viability, T/C","second compound 0.0316 µM, first compound 0.316 µM",93.8%
same,"viability, T/C","second compound 0.0316 µM, first compound 1 µM",131%
same,"viability, T/C","second compound 0.0316 µM, first compound 3.16 µM",101%
same,"viability, T/C","second compound 0.0316 µM, first compound 10 µM",90.5%
same,"viability, T/C",[3],105%
same,"viability, T/C",[4],112%
same,"viability, T/C","second compound 0.1 µM, first compound 0.316 µM",103%
same,"viability, T/C","second compound 0.1 µM, first compound 1 µM",91.9%
same,"viability, T/C","second compound 0.1 µM, first compound 3.16 µM",134%
same,"viability, T/C","second compound 0.1 µM, first compound 10 µM",93.2%
same,"viability, T/C",[5],78.9%
same,"viability, T/C",[6],102%
same,"viability, T/C","second compound 0.316 µM, first compound 0.316 µM",93.2%
same,"viability, T/C","second compound 0.316 µM, first compound 1 µM",76.4%
same,"viability, T/C","second compound 0.316 µM, first compound 3.16 µM",98%
same,"viability, T/C","second compound 0.316 µM, first compound 10 µM",93.6%
same,"viability, T/C",[7],74.5%
same,"viability, T/C",[8],71.2%
same,"viability, T/C","second compound 1 µM, first compound 0.316 µM",88%
same,"viability, T/C","second compound 1 µM, first compound 1 µM",70.8%
same,"viability, T/C","second compound 1 µM, first compound 3.16 µM",97.7%
same,"viability, T/C","second compound 1 µM, first compound 10 µM",82.4%
same,"viability, T/C",[9],76.9%
same,"viability, T/C",[10],69%
same,"viability, T/C","second compound 3.16 µM, first compound 0.316 µM",64.3%
same,"viability, T/C","second compound 3.16 µM, first compound 1 µM",78.5%
same,"viability, T/C","second compound 3.16 µM, first compound 3.16 µM",72.3%
same,"viability, T/C","second compound 3.16 µM, first compound 10 µM",65.2%
same,"viability, T/C",[11],65.2%
same,"viability, T/C",[12],67.3%
same,"viability, T/C","second compound 10 µM, first compound 0.316 µM",58.6%
same,"viability, T/C","second compound 10 µM, first compound 1 µM",62.1%
same,"viability, T/C","second compound 10 µM, first compound 3.16 µM",60.9%
same,"viability, T/C","second compound 10 µM, first compound 10 µM",46.9%
